Tests used:
[1] = Single fragrance migration study in biphasic compositions, GC/MS analysis; assay type: physicochemical; details: for Result in % based on GC/MS analysis, Regular EDT aromatics %: Regular EDT with Fragrance oil Giddy 11598/00; for migration between phases when the amount of water is increased: water ~7.4 wt % to ~27.25 wt %, FIG. 1, GC/MS
From the text: FIG. 1 has been obtained using GC/MS analytical tool. Depending primary on the log P of fragrances and/or secondary of the chemical families/functions of those fragrances, modification of the polarity will have the effect of pushing the fragrance in one preferred phase of the biphasic composition.
To determine the distribution of first fragrance and second fragrance in the biphasic composition three formulations (regular EDT, biphasic composition with low amount of water in the water-alcohol phase, biphasic composition with high amount of water in the water-alcohol phase) were tested and compared using GC/MS analysis and Expert evaluator.

[2] = colorant; cited from earlier work
[3] = Bi phase formula high amount of water in the bottom phase (total water ~27.24%)
[4] = Bi phase formula low amount of water in the bottom phase (total water ~7.4%)

## C=CC(C)(O)CCC=C(C)CC (mixture of isomers) [ethyl linalol]
[1]; [3]
  Result in % based on GC/MS analysis, Lower phase aromatics %: 28.40%
  Result in % based on GC/MS analysis, Upper phase aromatics %: 0.83%
[1]; [4]
  Result in % based on GC/MS analysis, Lower phase aromatics %: 6.86%
  Result in % based on GC/MS analysis, Upper phase aromatics %: 1.11%
[1]
  Result in % based on GC/MS analysis, Regular EDT aromatics %: 4.39%
  migration between phases when the amount of water is increased: stays in the hydro-alcoholic phase

## CC(=O)OC1CCCCC1C(C)(C)C (single isomer, unassigned) [agrumex major isomer, agrumex]
[1]; [3]
  Result in % based on GC/MS analysis, Lower phase aromatics %: 0.16%
  Result in % based on GC/MS analysis, Upper phase aromatics %: 0.47%
[1]; [4]
  Result in % based on GC/MS analysis, Lower phase aromatics %: 0.40%
  Result in % based on GC/MS analysis, Upper phase aromatics %: 0.45%
[1]
  Result in % based on GC/MS analysis, Regular EDT aromatics %: 0.41%

## O=C1c2ccccc2C(=O)C1c1ccc2ccccc2n1 [D&C Yellow No. 11]
[2]
  solubility (oil-soluble / water-soluble): oil-soluble

## O=C(O)c1nn(-c2ccc(S(=O)(=O)O)cc2)c(O)c1N=Nc1ccc(S(=O)(=O)O)cc1 [FD&C Yellow No. 5]
[2]
  solubility (oil-soluble / water-soluble): water-soluble

## CCCCCCCCCCCCCC(=O)OC(C)C [Isopropyl Myristate IPM, Isopropyl Myristate]
[1]; [3]
  Result in % based on GC/MS analysis, Lower phase aromatics %: 0.00%
  Result in % based on GC/MS analysis, Upper phase aromatics %: 13.93%
[1]; [4]
  Result in % based on GC/MS analysis, Lower phase aromatics %: 4.96%
  Result in % based on GC/MS analysis, Upper phase aromatics %: 23.40%
[1]
  Result in % based on GC/MS analysis, Regular EDT aromatics %: 13.34%
  migration between phases when the amount of water is increased: migrate following the same rules in the oil phase

## CC(C)CC1CC(C)(O)CCO1 (stereo not shown) [florosa]
[1]; [3]
  Result in % based on GC/MS analysis, Lower phase aromatics %: 5.86%
  Result in % based on GC/MS analysis, Upper phase aromatics %: 3.93%
[1]; [4]
  Result in % based on GC/MS analysis, Lower phase aromatics %: 5.12%
  Result in % based on GC/MS analysis, Upper phase aromatics %: 1.86%
[1]
  Result in % based on GC/MS analysis, Regular EDT aromatics %: 3.82%

## CC1COCc2cc3c(cc21)C(C)(C)C(C)C3(C)C (stereo not drawn) [galaxolide (main peak), galaxolide]
[1]; [3]
  Result in % based on GC/MS analysis, Lower phase aromatics %: 1.64%
  Result in % based on GC/MS analysis, Upper phase aromatics %: 22.92%
[1]; [4]
  Result in % based on GC/MS analysis, Lower phase aromatics %: 15.47%
  Result in % based on GC/MS analysis, Upper phase aromatics %: 26.53%
[1]
  Result in % based on GC/MS analysis, Regular EDT aromatics %: 20.25%
  migration between phases when the amount of water is increased: migrating in the oily phase

## CCCCCC1C(=O)CCC1CC(=O)OC (stereo not drawn) [hedione trans, hedione]
[1]; [3]
  Result in % based on GC/MS analysis, Lower phase aromatics %: 26.10%
  Result in % based on GC/MS analysis, Upper phase aromatics %: 11.94%
[1]; [4]
  Result in % based on GC/MS analysis, Lower phase aromatics %: 18.40%
  Result in % based on GC/MS analysis, Upper phase aromatics %: 6.64%
[1]
  Result in % based on GC/MS analysis, Regular EDT aromatics %: 13.28%

## CC(C=O)Cc1ccc2c(c1)OCO2 (stereo not shown) [helional]
[1]; [3]
  Result in % based on GC/MS analysis, Lower phase aromatics %: 4.10%
  Result in % based on GC/MS analysis, Upper phase aromatics %: 0.91%
[1]; [4]
  Result in % based on GC/MS analysis, Lower phase aromatics %: 2.03%
  Result in % based on GC/MS analysis, Upper phase aromatics %: 0.40%
[1]
  Result in % based on GC/MS analysis, Regular EDT aromatics %: 1.32%

## CCCCCCC(C=O)=Cc1ccccc1 [hexylcinnamic aid, hexylcinnamic aldehyde]
[1]; [3]
  Result in % based on GC/MS analysis, Lower phase aromatics %: 0.46%
  Result in % based on GC/MS analysis, Upper phase aromatics %: 1.67%
[1]; [4]
  Result in % based on GC/MS analysis, Lower phase aromatics %: 1.65%
  Result in % based on GC/MS analysis, Upper phase aromatics %: 1.43%
[1]
  Result in % based on GC/MS analysis, Regular EDT aromatics %: 1.54%
  migration between phases when the amount of water is increased: migrating in the oily phase

## CC(CC=O)CCCC(C)(C)O (stereo not shown) [hydroxycitronelial]
[1]; [3]
  Result in % based on GC/MS analysis, Lower phase aromatics %: 4.13%
  Result in % based on GC/MS analysis, Upper phase aromatics %: 0.12%
[1]; [4]
  Result in % based on GC/MS analysis, Lower phase aromatics %: 0.88%
  Result in % based on GC/MS analysis, Upper phase aromatics %: 0.06%
[1]
  Result in % based on GC/MS analysis, Regular EDT aromatics %: 0.53%

## CC(C=O)Cc1ccc(C(C)(C)C)cc1 (stereo not shown) [lilial]
[1]; [3]
  Result in % based on GC/MS analysis, Lower phase aromatics %: 2.43%
  Result in % based on GC/MS analysis, Upper phase aromatics %: 4.18%
[1]; [4]
  Result in % based on GC/MS analysis, Lower phase aromatics %: 4.90%
  Result in % based on GC/MS analysis, Upper phase aromatics %: 2.70%
[1]
  Result in % based on GC/MS analysis, Regular EDT aromatics %: 3.92%

## C=CC(C)(CCC=C(C)C)OC(C)=O (stereo not shown) [linalyl acetate]
[1]; [3]
  Result in % based on GC/MS analysis, Lower phase aromatics %: 1.63%
  Result in % based on GC/MS analysis, Upper phase aromatics %: 3.89%
[1]; [4]
  Result in % based on GC/MS analysis, Lower phase aromatics %: 3.52%
  Result in % based on GC/MS analysis, Upper phase aromatics %: 3.38%
[1]
  Result in % based on GC/MS analysis, Regular EDT aromatics %: 3.37%

Reference: patent publication US20170119630A1, “BIPHASIC COMPOSITION FOR PERFUME AND PERSONAL CARE APPLICATIONS AND USES THEREOF” (Coty Inc., priority 2014, published 2017)
